{"source": "patent US6403647B1", "about": "“Pulsed administration of compositions for the treatment of blood disorders” (priority 1996, dated 2002)", "key": {"fetal globin [1]": {"system": "fetal globin", "experiment": "Fetal globin production in erythroid progenitor colonies (Bfu-e), sickle cell anemia patient", "format": "cell-based, human", "conditions": "controls 48% of non-α globin"}, "Bfu-e": {"system": "Bfu-e", "experiment": "Erythroid colony (Bfu-e) proliferation with maximal growth factors, normal subject", "format": "cell-based, human", "conditions": "0.2-0.5 mM where given", "excerpt": "Erythroid cells were obtained, as described in Example 1, from a normal subject and cultured on semi-solid medium in the presence of a maximal amount of erythroid growth factors including IL-6, GM-CSF, SCF and EPO. Erythroid proliferation in the presence of these factors is expected to be maximal and, therefore, any increases observed would be significant."}, "[2]": {"experiment": "Total hemoglobin in phlebotomized anemic baboons, continuous versus pulse therapy", "format": "in vivo, baboon", "description": "Therapy was administered to anemic baboons who were being phlebotomized 5-10 ml/kg of blood per day on a continuous basis. EPO was administered daily at 300 U/kg/dose. Arginine butyrate was administered daily at 700 mg/kg/day for 5 days and phenoxyacetic acid at 500 mg/kg/day daily over 8 hours and at 1000 mg/kg/day for 24 hours/day daily for five days each. […] With continuous arginine butyrate treatment, hemoglobin remained essentially stable at 6.7 to 6.9 gram/dl. With continuous treatment with phenoxyacetic acid, hemoglobin levels remained stable at 7.0 gram/dl to 6.9 gram/dl during 8 hour therapy and declined from 6.8 to 4.5 when the drug was given for 24 hours per day for 5 days."}, "fetal globin [3]": {"system": "fetal globin", "experiment": "Proportion of fetal globin-expressing cells in culture, fluorescent antibodies, sickle cell patient", "format": "cell-based, human", "conditions": "14 days, controls 40.7%", "description": "In a fourth experiment, erythroid cells were obtained from a sickle cell patient. These cells were established in culture both with and without test a variety of test compounds. Cultures were incubated for 14 days in methylcellulose media with maximal concentrations of all hematopoietic growth factors (GM-CSF, SCF, EPO). Colonies were analyzed using fluorescent monoclonal antibodies against fetal globin to determine the proportion of erythroid cells that expressed fetal globin."}, "human fetal liver cells": {"system": "human fetal liver cells", "experiment": "Erythroid progenitor colony proliferation, fetal liver cells", "format": "cell-based", "conditions": "0.2 mM, maximal growth factors, p<0.025", "description": "In a third experiment, human fetal liver cells were also tested. As fetal cells are known not to respond to the presence of the growth factors, any increases observed are highly significant. Erythroid progenitor cultures were established from fetal liver and plated with maximal amounts of growth factors. To these plates were added; lane 1, 2-(4′-methoxyphenoxy) propionic acid; lane 2, phenoxyacetic acid; and lane 3, α-methylhydrocinnamic acid; all at a concentration of 0.2 mM."}, "[4]": {"experiment": "DNA fragmentation assays (cell viability)", "format": "cell-based", "excerpt": "Normal cell viability, the viability of an untransformed or uninfected cell, can be determined from analyzing the effects of the composition on one or more biological processes of the cell. Detrimental interference with one or more of these cellular processes becomes significant when the process becomes abnormal. Examples of quantitatable and qualifiable biological processes include the processes of cell division, protein synthesis, nucleic acid (DNA or RNA) synthesis, nucleic acid (principally DNA) fragmentation and apoptosis. Others processes include specific enzyme activities, the activities of the cellular transportation systems such as the transportation of amino acids by system A (neutral), system B (acidic) or system C (basic), and the expression of a cell surface protein. […] Abnormal cell division, for example, can be mitosis which occurs too rapidly, as in a malignancy, or unstably, resulting in programmed cell death or apoptosis, detected by increased DNA degradation. The determination of abnormal cell viability can be made on comparison with untreated control cells. Compositions preferably increase normal cell viability. Increased cell viability can be determined by those of ordinary skill in the art using, for example, DNA fragmentation analysis. […] Determinations of increased or decreased viability can also be concluded from an analysis of the results of multiple different assays. Where multiple tests provide conflicting results, accurate conclusions can still be drawn by those of ordinary skill based upon the cell type, the correctness or correlation of the tests with actual conditions and the type of composition.\nPatients with blood disorders are typically quite infirm with, for example, iron damaged organs and systems. Most treatments further tax the patient's already frail health in an effort to combat the disorder."}, "[5]": {"system": "system A transport of amino acids", "experiment": "Uptake of 3H-methyl-aminoisobutyric acid (MeAIB) into erythroblasts", "format": "cell-based", "conditions": "for amino acid (MeAIB) uptake / transport: 2.0 mM, relative to untreated fetal liver erythroid cells", "description": "Erythroblasts were tested for alterations in uptake of radio-labelled amino acid (^3H-methyl-aminoisobutyric acid; MeAIB) in the presence of AB (arginine butyrate), AMHCA (α-methylhydrocinnamic acid), PAA (phenoxyacetic acid), and IBT (isobutyramide), each at 2.0 mM."}, "[6]": {"system": "K562 human erythroleukemia cells", "conditions": "cited from earlier work"}, "Friend leukemia cells": {"system": "Friend leukemia cells", "conditions": "cultured Friend leukemia cells; cited from earlier work"}, "γ globin mRNA": {"system": "γ globin mRNA", "conditions": "continuous intravenous administration; cited from earlier work"}, "[7]": {"experiment": "Platelet counts in baboon with pulse administration", "format": "in vivo", "conditions": "increased from 240,000"}, "[8]": {"experiment": "Apoptosis (fragmented DNA stain) of circulating erythroblasts, Hb-E beta thalassemia patient", "format": "in vivo, human", "excerpt": "Peripheral blood from a patient with Hb-E beta thalassemia has 1200 NRBCs per 100 white blood cells which allows for rapid monitoring for apoptosis. […] A plateau or even a decline in hematologic response has been observed when butyrate therapy is given continuously."}, "[9]": {"experiment": "Globin chain synthesis at varied butyrate infusion rates in patients", "format": "in vivo, human", "conditions": "infusion at 150 mg per kg per hour; baseline 0.6", "description": "Infusion rates were varied between 20 to 150 mg per kg per hour in several patients who have large proportions of circulating nucleated erythroblasts. Globin chain synthesis was assayed at different time points before and following drug infusions."}, "[10]": {"experiment": "Continuous butyrate therapy in a child with beta thalassemia", "format": "in vivo, human", "excerpt": "Treatment period, the ten month duration of butyrate therapy, is shown between the vertical lines."}, "[11]": {"experiment": "Weekly then pulse butyrate in a patient with β° thalassemia", "format": "in vivo, human", "description": "A plateau or even a decline in hematologic response has been commonly observed when butyrate therapy is given continuously. This is illustrated in a patient with β° thalassemia, who responded to weekly butyrate treatment with an increase in fetal globin synthesis and improved globin chain balance from 0.5 to 0.85 non-α to α-globin chain ratios (FIG. 8). A 3-fold increase in γ globin mRNA was detected 24-36 hours after therapy. A 1-1.5 gram/dl rise in total hemoglobin followed the increase in […] synthesis and mRNA, but total Hgb then plateaued and even declined slightly (solid line). A decline in ferritin is also frequently observed (lower panel), even though the patient received single daily supplements.\nWhen therapy was decreased to shorter pulses for 2-3 days on alternate weeks, total hemoglobin rose another 2 grams/dl. Increased iron supplements were required to support the active erythropoiesis, despite the presence of iron overload.\nThe therapeutic rise in total hemoglobin plateaued or declined on weekly therapy. With a change to pulse therapy, shown by the curved arrow, there was a further rise in total Hgb to 9.6 gm/dl, a level that no longer requires transfusions.\nA three fold increase in γ globin mRNA was detected 24 to 36 hours after therapy.\nA 1.0 to 1.5 gram per deciliter rise in total hemoglobin followed the increase in γ globin mRNA synthesis for 30 to 50 days, but total Hgb plateaued and even declined slightly (FIG. 8). A decline in ferritin was also frequently observed (FIG. 10) even though the patient received single daily supplements.\nIncreased iron supplements were required to support active erythropoiesis, despite the iron overload (FIG. 10)."}}, "note": "Where two headings read alike, the source gives them in different places.", "data": [{"smiles": "O=C(O)COc1ccccc1", "note": "[phenoxyacetic acid]", "values": [{"measurement": "increase in fetal globin over controls", "setting": "fetal globin [1]", "result": 34, "unit": "%"}, {"measurement": "Bfu-e growth", "setting": "Bfu-e", "result": "further increase Bfu-e growth"}, {"measurement": "total hemoglobin after treatment", "setting": "[2]; continuous, 500 mg/kg/day daily over 8 hours, from 7.0", "result": 6.9, "unit": "gram/dl"}, {"measurement": "total hemoglobin after treatment", "setting": "[2]; continuous, 1000 mg/kg/day, 24 hours per day for 5 days, declined from 6.8", "result": 4.5}, {"measurement": "total hemoglobin after treatment", "setting": "[2]; pulse, 2 oral doses per week, 500 mg/kg on days 1 and 4, in one week, from 6.9", "result": 7.6, "unit": "gram/dl"}, {"measurement": "Increase in γ-Globin Expressing Cells", "setting": "fetal globin [3]; 0.2 mM", "result": 54.6, "unit": "%"}, {"measurement": "proliferation of colonies", "setting": "human fetal liver cells", "result": "increased proliferation of colonies"}, {"measurement": "DNA fragmentation in fragmentation assays", "setting": "[4]; pulsed administration", "result": "reduce DNA fragmentation"}, {"measurement": "system A transport of amino acids", "setting": "[5]", "result": "do not significantly alter system A transport of amino acids"}, {"measurement": "amino acid (MeAIB) uptake / transport", "setting": "[5]", "result": "did not inhibit amino acid transport"}]}, {"smiles": "CCCC(=O)OCC", "note": "[butyric acid ethyl ester]", "values": [{"measurement": "DNA fragmentation in fragmentation assays", "setting": "[4]", "result": "reduce DNA fragmentation"}]}, {"smiles": "CC(C)C(N)=O", "note": "[isobutyramide]", "values": [{"measurement": "cell viability in DNA fragmentation assays", "setting": "[4]", "result": "decrease cell viability"}]}, {"smiles": "CC(Cc1ccccc1)C(=O)O", "note": "(stereo not drawn) [α-methylhydrocinnamic acid]", "values": [{"measurement": "increase in fetal globin over controls", "setting": "fetal globin [1]", "result": 18, "unit": "%"}, {"measurement": "Bfu-e growth", "setting": "Bfu-e", "result": "further increase Bfu-e growth"}, {"measurement": "Increase in γ-Globin Expressing Cells", "setting": "fetal globin [3]; concentration not given", "result": 64.4, "unit": "%"}, {"measurement": "proliferation of colonies", "setting": "human fetal liver cells", "result": "increased proliferation of colonies"}, {"measurement": "system A transport of amino acids", "setting": "[5]", "result": "do not significantly alter system A transport of amino acids"}, {"measurement": "amino acid (MeAIB) uptake / transport", "setting": "[5]", "result": "did not inhibit amino acid transport"}]}, {"smiles": "CCC(=O)O", "note": "[propionate]", "values": [{"measurement": "ability to increase fetal globin expression", "setting": "[6]", "result": "most effective"}, {"measurement": "hemoglobin synthesis", "setting": "Friend leukemia cells", "result": "induced hemoglobin synthesis"}]}, {"smiles": "CC(=O)O", "note": "[acetate]", "values": [{"measurement": "hemoglobin synthesis", "setting": "Friend leukemia cells", "result": "induced hemoglobin synthesis"}]}, {"smiles": "Nc1ncn([C@@H]2O[C@H](CO)[C@@H](O)[C@H]2O)c(=O)n1", "note": "[AZA, 5-azacytidine]", "values": [{"measurement": "increase in γ globin mRNA of bone marrow cells", "setting": "γ globin mRNA", "result": "five- to seven-fold"}]}, {"smiles": "CC(C)C(=O)O", "note": "[isobutyrate]", "values": [{"measurement": "hemoglobin synthesis", "setting": "Friend leukemia cells", "result": "induced hemoglobin synthesis"}]}, {"smiles": "O=C(O)CCc1ccccc1", "note": "[dihydrocinnamic acid]", "values": [{"measurement": "platelet counts after treatment", "setting": "[7]", "result": "767,000"}]}, {"smiles": "COc1ccc(OC(C)C(=O)O)cc1", "note": "(stereo not shown) [2-(4′-methoxyphenoxy) propionic acid]", "values": [{"measurement": "Bfu-e growth", "setting": "Bfu-e", "result": "further increase Bfu-e growth"}, {"measurement": "proliferation of colonies", "setting": "human fetal liver cells", "result": "increased proliferation of colonies"}, {"measurement": "amino acid (MeAIB) uptake / transport", "setting": "[5]", "result": "moderate inhibition of transport"}, {"measurement": "inhibition of MeAIB uptake", "setting": "[5]; after 60 and 120 minutes", "result": "somewhat less so"}]}, {"smiles": "CCCC(=O)O", "note": "[butyrate]", "values": [{"measurement": "apoptosis, red stain of fragmented DNA", "setting": "[8]; after high-dose", "result": "red staining of most cells"}, {"measurement": "apoptosis, red stain of fragmented DNA", "setting": "[8]; after low-dose pulse therapy", "result": "no red-staining erythroblasts are observed"}, {"measurement": "non-α globin to α globin ratio", "setting": "[9]", "result": 0.77}, {"measurement": "total hemoglobin", "setting": "[10]; after 4 months of continuous weekly treatment", "result": "7.5-8.4 gm/dl"}, {"measurement": "total hemoglobin, peak", "setting": "[10]; continuous therapy, baseline 5.6 grams/dl", "result": 9.9, "unit": "gm/dl"}, {"measurement": "total hemoglobin, plateau", "setting": "[10]; continuous therapy, for 2 months after peak", "result": "8.0-8.8 gm/dl"}, {"measurement": "total Hgb reached", "setting": "[11]; after change to pulse therapy", "result": 9.6, "unit": "gm/dl"}, {"measurement": "non-α to α-globin chain ratios", "setting": "[11]; weekly butyrate, improved from 0.5", "result": 0.85}, {"measurement": "rise in total hemoglobin", "setting": "[11]; weekly butyrate, then plateaued", "result": "1-1.5 gram/dl"}]}]}
